Measurements published in US20100234238A1, “METHOD FOR PROFILING KINASE INHIBITORS” (Janssen Pharmaceutica N V, priority 2006, published 2010).

Key:
[1] = test system: tyrosine kinase activity in cell line lysates; experiment: Peptide array profiling of 9 cell line lysates in the presence of MTKI or Tarceva; assay type: biochemical; conditions: GTL16 lysates; 5 μM
Protocol: To test whether other EGFR inhibitors, related to MTKI, such as Tarceva (erlotinib; OSI pharmaceuticals), are also amenable to this response prediction methodology, 9 cell lines were profiled in the presence of MTKI, or Tarceva (5 μM in both cases). […] The value of the previously derived MTKI prediction peptides is illustrated in Tables 6A to C. Based on these peptides also response to Tarceva can be predicted with identical accuracy as for MTKI (and with the same false predictions, in casu H2009 and MOLT4).

[2] = test system: cMet kinase activity in cell lysates; experiment: 140-tyrosine peptide array profiling of cell lysates with cMET inhibitor 605; assay type: biochemical; conditions: responder cell lysates; 1 μM compound
Excerpt: To examine whether the currently available 140-tyrosine peptide arrays from Pamgene will also detect other kinase activities then those described above, another compound was profiled using the same methodology: this is an exquisitely selective inhibitor of the cMET receptor tyrosine kinase (see US2007 0203136 A1) and with formula: […]
(§1) As shown in Example 7, clear-cut differences in peptide phosphorylation inhibition by 605 could be identified in the responder lysates versus non-responder lysates. Note that the cMet signature peptide set features two peptides derived from Ron, the closest homologue to cMet. […] The 605 signature peptides show no overlap at all with the MTKI signature peptides set, consistent with the absence of any overlap in kinase specificity between MTKI and 605.

[3] = test system: HGF-induced colony formation; experiment: HGF-induced colony formation (responsiveness to 605); assay type: cell-based; parameters: key: R = Responder to cMET; NR = Non-Responder to cMET
Ron kinase = Ron kinase (Homo sapiens, UniProt Q04912); experiment: Purified Ron kinase inhibition; assay type: biochemical; conditions: 1 μM
Excerpt: as §1

Sequence of Ron kinase (Q04912 25-1400): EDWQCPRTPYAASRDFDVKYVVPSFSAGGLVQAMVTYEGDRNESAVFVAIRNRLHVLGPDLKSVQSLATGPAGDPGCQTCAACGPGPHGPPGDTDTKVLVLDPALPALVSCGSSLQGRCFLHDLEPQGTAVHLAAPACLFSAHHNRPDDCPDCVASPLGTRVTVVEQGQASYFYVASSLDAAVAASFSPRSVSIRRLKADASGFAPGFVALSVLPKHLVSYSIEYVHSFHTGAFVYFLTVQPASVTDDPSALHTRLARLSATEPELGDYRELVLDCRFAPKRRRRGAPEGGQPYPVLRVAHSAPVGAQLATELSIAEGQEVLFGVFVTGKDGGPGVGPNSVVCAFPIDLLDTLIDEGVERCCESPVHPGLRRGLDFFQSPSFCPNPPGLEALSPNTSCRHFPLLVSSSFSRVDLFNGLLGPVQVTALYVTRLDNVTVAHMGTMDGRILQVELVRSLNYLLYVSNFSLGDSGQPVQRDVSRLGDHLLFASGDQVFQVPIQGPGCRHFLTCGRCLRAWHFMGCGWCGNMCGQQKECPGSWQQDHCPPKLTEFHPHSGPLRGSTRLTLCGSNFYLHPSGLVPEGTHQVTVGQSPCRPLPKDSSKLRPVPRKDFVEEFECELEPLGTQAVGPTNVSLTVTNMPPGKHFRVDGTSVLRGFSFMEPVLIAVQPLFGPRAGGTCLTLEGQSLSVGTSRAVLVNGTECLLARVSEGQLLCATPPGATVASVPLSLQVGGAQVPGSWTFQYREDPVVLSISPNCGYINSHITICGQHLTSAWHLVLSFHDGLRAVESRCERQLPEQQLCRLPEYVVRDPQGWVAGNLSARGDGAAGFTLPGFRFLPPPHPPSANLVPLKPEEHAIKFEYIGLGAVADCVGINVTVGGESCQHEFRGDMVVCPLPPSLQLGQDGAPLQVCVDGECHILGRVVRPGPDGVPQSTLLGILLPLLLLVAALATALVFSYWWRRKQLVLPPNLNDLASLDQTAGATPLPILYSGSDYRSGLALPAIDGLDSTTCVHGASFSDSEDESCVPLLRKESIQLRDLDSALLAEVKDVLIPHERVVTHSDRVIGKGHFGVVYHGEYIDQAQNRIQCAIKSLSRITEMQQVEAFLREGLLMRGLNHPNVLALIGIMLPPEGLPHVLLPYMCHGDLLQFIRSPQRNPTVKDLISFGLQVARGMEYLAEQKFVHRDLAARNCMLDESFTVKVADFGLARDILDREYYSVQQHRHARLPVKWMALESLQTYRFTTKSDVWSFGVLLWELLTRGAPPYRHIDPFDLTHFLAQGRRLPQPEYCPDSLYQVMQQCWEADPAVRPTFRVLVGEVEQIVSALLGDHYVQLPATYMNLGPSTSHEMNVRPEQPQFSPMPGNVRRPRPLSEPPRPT

inhibition of purified Ron kinase (Ron kinase) | SMILES | activity in lysate inhibition profile compared to MTKI [1] | inhibition of peptide phosphorylation [2] | response status ([3]; A549 cell line) | response status ([3]; Caco2 cell line) | response status ([3]; H322 cell line) | response status ([3]; H441 cell line) | response status ([3]; H1792 cell line) | response status ([3]; H2106 cell line) | response status ([3]; H2122 cell line) | response status ([3]; Kato2 cell line) | response status ([3]; MKN45 cell line) | response status ([3]; N87 cell line) | response status ([3]; SNU5 cell line) | response status ([3]; SNU484 cell line) | response status ([3]; WIDR cell line) | response status ([3]; YKG cell line)
– | C#Cc1cccc(Nc2ncnc3cc(OCCOC)c(OCCOC)cc23)c1 [Tarceva, reference compound] | additional activity | – | – | – | – | – | – | – | – | – | – | – | – | – | – | –
does not inhibit | Cn1cc(-c2ccc3nnc(C(F)(F)c4ccc5ncccc5c4)n3n2)cn1 [compound 605] | – | significant inhibition | NR | NR | NR | R | R | NR | NR | R | R | NR | R | NR | R | NR
